Data taken from patent publication US9216204B2, “Bone targeted therapeutics and methods of making and using the same” (MBC Pharma, Inc., priority 1998, dated 2015).

Legend:
[1] = Binding of bisphosphonate conjugates on hydroxyapatite powder (UV absorbency of supernatant); conditions: pH 7.0
Protocol: A. To estimate the binding of BC on hydroxyapatite (mineral component of a bone) UV spectra of BC in buffer pH 7 were recorded before and after treatment with hydroxyapatite. To this end 10 μl of hydroxyapatite suspension in water was added to 1 ml of ˜10^−4 M solution of a BC in 0.1M Tris-HCl buffer, pH 7.0, 0.15 M NaCl and the mixture was intensively shaken for 10 minutes, and centrifuged for 5 minutes at 10,000 rpm in a microcentrifuge. The supernatant was separated and an absorbency spectrum of the supernatant was recorded.

[2] = Mineral-binding ability by retention time on hydroxyapatite HPLC column; conditions: pH = 6.8, 2 mL/min
Protocol: B. […] The flow rate was 2 mL min^−1. […] Nucleoside mono-, di-, and triphosphates were recorded at a wavelength of 260 nm and zoledronate at a wavelength of 218 nm. The concentration of the eluted compounds was 0.3 mmol L^−1.

[3] = 1500 mM sodium phosphate buffer

O=c1[nH]c(=O)n(COCCOP(=O)(O)OP(=O)(O)CP(=O)(O)O)cc1F [II, Anhydride of 1-(2′-hydroxyethoxymethyl)-5-fluorouracil-2′-phosphate and methylenediphosphonic acid]
% of bound compound [1]: 87.26%
% of nonbound compound [1]: 12.74%

O=c1ccn([C@@H]2O[C@H](COP(=O)(O)OP(=O)(O)O)[C@@H](O)[C@H]2O)c(=O)[nH]1 [UDP]
Retention time on hydroxyapatite column ([2]; 500 mM sodium phosphate buffer): 5.75 min
Retention time on hydroxyapatite column [2, 3]: 3.47 min

O=c1ccn([C@@H]2O[C@H](COP(=O)(O)O)[C@@H](O)[C@H]2O)c(=O)[nH]1 [UMP]
Retention time on hydroxyapatite column ([2]; 500 mM sodium phosphate buffer): 4.25 min
Retention time on hydroxyapatite column [2, 3]: 3.42 min

O=c1ccn([C@@H]2O[C@H](COP(=O)(O)OP(=O)(O)OP(=O)(O)O)[C@@H](O)[C@H]2O)c(=O)[nH]1 [UTP]
Retention time on hydroxyapatite column [2, 3]: 3.5 min

CC(O)(P(=O)(O)O)P(=O)(O)OP(=O)(O)OCC1OC(n2cc(F)c(=O)[nH]c2=O)C(O)C1O (stereo not drawn) [VI, anhydride of 5-Fluoro-uridine-5′-monophosphoric acid and 1-Hydroxyethylidene-1,1-diphosphonic acid]
Retention time on hydroxyapatite column ([2]; 500 mM sodium phosphate buffer): 17.72 min
Retention time on hydroxyapatite column [2, 3]: 6.00 min
% of bound compound [1]: 69.66%
% of nonbound compound [1]: 30.34%

O=P(O)(O)C(O)(Cn1ccnc1)P(=O)(O)O [Zoledronate, zoledronate]
Retention time on hydroxyapatite column [2, 3]: 17.35 min
